Measurements taken from ChEMBL document CHEMBL5465560, “Selectivity Literature for EUbOPEN Chemogenomic Library” (2024).
Values belong to the compound of their own block, whether it stands above or below them.

Experiments:
[1] = target: Cyclin-dependent kinase 3 (Homo sapiens) (UniProt Q00526); conditions: at 10 µM
[2] = target: Proto-oncogene tyrosine-protein kinase Src (Homo sapiens, UniProt P12931); experiment: Selectivity interaction (KinomeScan (DiscoverX)) EUB0001079a SRC; conditions: at 1 µM
[3] = tested on: eIF-2-alpha kinase GCN2 (Homo sapiens), Q9P2K8 [S808G]; experiment: Selectivity interaction (KinomeScan (DiscoverX)) EUB0001619a EIF2AK4; conditions: at 1 µM
[4] = target: T1, Ribosomal protein S6 kinase delta-1 (Homo sapiens) (UniProt Q96S38); experiment: Selectivity interaction (Kinase panel (KiNativ target engagement assay in Jurkat cells)) EUB0001635a RPS6KC1; format: cell-based; conditions: Selectivity number of off-targets 0.0, Selectivity number of targets 233.0, Source Knowledge https://www.sciencedirect.com/science/article/pii/S2451945619300674?via%3Dihub, at 1 µM
T1 sequence (whole entry): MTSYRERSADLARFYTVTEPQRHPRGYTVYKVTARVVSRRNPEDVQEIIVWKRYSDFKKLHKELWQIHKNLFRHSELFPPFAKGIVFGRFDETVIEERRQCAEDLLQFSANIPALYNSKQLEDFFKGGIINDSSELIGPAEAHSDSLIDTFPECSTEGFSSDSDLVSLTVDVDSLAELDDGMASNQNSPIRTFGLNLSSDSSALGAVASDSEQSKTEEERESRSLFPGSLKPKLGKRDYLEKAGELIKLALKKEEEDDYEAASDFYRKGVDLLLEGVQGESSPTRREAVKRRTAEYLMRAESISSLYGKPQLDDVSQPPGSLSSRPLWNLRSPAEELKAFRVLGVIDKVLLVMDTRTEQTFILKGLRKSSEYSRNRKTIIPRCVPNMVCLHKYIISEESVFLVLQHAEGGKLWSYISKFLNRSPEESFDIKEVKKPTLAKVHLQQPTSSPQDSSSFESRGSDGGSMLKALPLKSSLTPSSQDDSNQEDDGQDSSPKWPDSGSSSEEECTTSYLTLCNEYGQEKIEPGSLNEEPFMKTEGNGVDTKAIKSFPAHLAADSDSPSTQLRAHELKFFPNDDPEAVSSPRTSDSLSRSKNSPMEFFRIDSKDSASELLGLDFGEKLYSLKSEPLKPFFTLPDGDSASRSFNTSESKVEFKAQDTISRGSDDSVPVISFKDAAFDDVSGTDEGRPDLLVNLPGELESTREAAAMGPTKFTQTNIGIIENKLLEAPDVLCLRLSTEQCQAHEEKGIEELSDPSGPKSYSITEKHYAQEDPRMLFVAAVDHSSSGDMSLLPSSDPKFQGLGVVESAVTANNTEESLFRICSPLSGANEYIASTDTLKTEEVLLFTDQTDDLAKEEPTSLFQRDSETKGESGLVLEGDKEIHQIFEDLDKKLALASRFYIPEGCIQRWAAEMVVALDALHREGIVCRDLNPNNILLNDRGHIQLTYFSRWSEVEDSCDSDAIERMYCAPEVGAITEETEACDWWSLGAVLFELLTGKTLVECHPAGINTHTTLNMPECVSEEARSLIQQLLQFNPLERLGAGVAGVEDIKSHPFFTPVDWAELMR

[5] = target: T2, Serine/threonine-protein kinase ULK1 (Homo sapiens) (UniProt O75385); experiment: Selectivity interaction (ActivX KiNativ screen (kinase selectivity in THP-1 cell lysates)) EUB0000639a ULK1; format: subcellular; conditions: lysate, at 0.01 µM
T2 sequence (whole entry): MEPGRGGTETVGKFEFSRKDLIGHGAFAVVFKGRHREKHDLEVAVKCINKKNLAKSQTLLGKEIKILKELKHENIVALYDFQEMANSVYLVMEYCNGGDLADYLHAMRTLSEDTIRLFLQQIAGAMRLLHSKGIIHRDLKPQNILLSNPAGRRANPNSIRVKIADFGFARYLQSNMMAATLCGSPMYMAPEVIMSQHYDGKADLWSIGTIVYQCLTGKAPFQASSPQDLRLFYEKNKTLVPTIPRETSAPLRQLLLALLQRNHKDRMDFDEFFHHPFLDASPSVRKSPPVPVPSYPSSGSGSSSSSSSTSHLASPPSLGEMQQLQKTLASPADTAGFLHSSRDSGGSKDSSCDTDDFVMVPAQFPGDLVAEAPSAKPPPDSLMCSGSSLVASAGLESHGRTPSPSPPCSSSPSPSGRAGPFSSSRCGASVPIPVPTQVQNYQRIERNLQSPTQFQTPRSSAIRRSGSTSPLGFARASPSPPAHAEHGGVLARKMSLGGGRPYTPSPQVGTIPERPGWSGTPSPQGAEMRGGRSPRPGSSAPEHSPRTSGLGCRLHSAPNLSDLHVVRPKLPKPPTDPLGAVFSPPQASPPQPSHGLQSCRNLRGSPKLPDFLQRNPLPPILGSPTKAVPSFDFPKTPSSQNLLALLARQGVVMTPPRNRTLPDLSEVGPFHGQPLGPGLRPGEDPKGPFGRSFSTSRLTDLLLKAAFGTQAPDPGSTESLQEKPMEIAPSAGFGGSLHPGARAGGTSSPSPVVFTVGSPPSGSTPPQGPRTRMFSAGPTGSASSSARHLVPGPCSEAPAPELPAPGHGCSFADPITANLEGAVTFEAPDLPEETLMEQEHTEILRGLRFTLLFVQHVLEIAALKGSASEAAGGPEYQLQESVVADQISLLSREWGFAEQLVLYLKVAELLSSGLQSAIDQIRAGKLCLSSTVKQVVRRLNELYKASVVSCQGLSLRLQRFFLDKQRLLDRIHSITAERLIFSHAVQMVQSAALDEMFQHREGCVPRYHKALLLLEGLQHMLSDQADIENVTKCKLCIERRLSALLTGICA

[6] = target: Cyclin-G-associated kinase (Homo sapiens, UniProt O14976); experiment: Selectivity interaction (Competition-binding assay (DiscoverX)) EUB0000229b GAK
[7] = tested on: eIF-2-alpha kinase GCN2 (Homo sapiens), Q9P2K8 [S808G]; experiment: Selectivity interaction (KinomeScan (DiscoverX)) EUB0001049a EIF2AK4; conditions: at 1 µM
[8] = target: Beta-1 adrenergic receptor (Homo sapiens, UniProt P08588); experiment: Selectivity interaction (Beta 1 adrenergic receptor assay, human recombinant ) EUB0000877a ADRB1
Sequence of Beta-1 adrenergic receptor (P08588 whole entry): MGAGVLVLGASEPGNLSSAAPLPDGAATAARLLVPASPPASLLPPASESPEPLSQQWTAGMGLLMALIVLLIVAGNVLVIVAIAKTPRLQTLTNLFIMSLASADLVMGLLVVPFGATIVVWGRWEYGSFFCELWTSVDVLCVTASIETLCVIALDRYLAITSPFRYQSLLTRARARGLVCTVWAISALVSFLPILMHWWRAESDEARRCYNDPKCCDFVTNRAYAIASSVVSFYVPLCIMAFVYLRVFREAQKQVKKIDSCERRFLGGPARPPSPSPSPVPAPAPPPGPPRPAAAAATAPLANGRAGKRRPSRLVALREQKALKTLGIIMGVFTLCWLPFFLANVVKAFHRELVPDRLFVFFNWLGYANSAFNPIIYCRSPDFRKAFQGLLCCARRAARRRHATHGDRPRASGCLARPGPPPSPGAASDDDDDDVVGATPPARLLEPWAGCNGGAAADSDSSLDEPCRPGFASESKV

Sequence of eIF-2-alpha kinase GCN2 (Homo sapiens), Q9P2K8 [S808G] (Q9P2K8 whole entry S808G): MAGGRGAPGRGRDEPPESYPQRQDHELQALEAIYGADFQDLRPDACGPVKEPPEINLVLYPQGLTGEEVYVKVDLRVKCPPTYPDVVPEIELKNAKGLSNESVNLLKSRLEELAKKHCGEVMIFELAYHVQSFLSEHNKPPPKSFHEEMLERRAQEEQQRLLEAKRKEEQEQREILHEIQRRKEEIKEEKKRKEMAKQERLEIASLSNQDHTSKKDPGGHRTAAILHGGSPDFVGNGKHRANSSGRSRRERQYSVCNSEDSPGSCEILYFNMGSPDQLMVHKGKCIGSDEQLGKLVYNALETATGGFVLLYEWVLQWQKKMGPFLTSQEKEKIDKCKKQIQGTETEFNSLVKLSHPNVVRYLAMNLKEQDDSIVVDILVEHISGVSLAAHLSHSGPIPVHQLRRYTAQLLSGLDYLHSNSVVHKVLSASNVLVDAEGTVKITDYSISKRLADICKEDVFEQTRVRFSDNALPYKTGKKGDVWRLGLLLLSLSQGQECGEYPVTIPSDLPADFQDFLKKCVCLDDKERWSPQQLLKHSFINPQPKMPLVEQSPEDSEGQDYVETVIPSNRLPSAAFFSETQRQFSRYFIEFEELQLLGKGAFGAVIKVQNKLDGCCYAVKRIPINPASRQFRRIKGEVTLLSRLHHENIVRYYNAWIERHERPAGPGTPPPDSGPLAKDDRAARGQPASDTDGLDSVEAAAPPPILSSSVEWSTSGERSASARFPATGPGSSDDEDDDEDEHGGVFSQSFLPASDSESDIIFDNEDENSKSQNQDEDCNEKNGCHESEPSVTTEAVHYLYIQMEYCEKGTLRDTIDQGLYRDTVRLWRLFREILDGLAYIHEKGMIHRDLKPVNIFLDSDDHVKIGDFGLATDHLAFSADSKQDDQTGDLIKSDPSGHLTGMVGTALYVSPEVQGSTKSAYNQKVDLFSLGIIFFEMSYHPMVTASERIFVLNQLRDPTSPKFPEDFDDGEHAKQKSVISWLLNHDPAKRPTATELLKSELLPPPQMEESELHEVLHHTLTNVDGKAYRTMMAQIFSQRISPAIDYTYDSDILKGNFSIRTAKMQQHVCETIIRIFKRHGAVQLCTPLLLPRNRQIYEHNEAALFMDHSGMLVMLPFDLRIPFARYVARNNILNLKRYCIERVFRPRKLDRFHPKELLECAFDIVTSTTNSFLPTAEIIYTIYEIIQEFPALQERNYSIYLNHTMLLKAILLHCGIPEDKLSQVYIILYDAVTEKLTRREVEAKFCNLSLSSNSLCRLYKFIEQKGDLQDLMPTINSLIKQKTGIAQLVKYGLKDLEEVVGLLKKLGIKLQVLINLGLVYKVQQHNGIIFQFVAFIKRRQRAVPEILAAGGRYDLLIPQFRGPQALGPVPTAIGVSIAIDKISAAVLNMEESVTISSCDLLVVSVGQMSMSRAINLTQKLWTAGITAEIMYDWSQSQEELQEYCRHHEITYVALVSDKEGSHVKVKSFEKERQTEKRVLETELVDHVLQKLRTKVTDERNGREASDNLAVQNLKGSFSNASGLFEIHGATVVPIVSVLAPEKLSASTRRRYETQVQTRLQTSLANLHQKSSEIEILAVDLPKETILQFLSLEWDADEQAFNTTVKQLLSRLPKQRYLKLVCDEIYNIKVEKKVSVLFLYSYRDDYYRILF
Sequence of Cyclin-G-associated kinase (O14976 whole entry): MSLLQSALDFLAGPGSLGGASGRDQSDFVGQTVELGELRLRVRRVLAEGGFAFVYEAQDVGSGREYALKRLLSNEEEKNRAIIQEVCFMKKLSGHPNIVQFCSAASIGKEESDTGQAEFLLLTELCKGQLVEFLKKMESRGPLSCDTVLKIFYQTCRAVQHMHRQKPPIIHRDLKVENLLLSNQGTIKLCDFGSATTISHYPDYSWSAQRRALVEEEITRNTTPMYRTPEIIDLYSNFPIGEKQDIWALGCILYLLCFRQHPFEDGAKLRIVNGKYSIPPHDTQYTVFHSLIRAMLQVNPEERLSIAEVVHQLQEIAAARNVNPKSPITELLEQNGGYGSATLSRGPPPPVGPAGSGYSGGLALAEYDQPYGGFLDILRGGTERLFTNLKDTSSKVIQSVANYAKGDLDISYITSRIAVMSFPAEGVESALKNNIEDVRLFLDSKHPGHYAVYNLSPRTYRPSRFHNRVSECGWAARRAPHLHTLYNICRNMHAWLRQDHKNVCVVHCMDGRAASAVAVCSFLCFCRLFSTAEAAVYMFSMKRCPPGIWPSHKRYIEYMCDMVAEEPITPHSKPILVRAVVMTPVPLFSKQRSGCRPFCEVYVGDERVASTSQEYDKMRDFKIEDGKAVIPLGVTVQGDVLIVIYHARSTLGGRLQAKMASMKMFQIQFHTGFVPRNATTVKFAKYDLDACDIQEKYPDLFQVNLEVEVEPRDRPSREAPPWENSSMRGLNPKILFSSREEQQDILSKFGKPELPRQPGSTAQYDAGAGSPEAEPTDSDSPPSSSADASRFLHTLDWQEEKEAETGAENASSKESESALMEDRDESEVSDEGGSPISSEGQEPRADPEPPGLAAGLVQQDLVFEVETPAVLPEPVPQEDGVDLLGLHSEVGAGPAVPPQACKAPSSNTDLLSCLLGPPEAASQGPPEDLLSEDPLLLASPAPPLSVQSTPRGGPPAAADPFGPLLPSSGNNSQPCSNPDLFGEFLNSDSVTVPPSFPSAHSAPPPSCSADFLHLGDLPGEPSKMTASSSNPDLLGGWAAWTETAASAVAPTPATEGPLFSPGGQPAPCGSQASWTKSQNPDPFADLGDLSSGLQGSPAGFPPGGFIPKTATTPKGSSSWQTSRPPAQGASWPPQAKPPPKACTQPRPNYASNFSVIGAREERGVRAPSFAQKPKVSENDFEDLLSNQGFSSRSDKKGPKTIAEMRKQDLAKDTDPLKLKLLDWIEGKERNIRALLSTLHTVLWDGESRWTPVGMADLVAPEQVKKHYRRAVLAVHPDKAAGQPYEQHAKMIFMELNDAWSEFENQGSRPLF
Sequence of Proto-oncogene tyrosine-protein kinase Src (P12931 2-536 limits assumed): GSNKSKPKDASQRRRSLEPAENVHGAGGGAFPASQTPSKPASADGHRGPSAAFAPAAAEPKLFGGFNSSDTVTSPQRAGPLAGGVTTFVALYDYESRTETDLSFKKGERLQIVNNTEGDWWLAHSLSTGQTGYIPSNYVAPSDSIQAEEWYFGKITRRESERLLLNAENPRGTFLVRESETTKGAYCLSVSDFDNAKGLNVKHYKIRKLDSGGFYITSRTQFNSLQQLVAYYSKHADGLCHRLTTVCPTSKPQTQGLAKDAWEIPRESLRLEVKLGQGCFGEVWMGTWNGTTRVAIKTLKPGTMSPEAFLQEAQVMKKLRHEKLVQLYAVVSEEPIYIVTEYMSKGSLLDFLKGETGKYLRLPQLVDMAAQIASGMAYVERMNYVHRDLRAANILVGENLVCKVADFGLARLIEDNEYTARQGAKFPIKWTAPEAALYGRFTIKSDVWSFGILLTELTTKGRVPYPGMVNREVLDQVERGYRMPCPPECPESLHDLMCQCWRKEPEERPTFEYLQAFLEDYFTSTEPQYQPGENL
Sequence of Cyclin-dependent kinase 3 (Homo sapiens) (Q00526 whole entry, looked up): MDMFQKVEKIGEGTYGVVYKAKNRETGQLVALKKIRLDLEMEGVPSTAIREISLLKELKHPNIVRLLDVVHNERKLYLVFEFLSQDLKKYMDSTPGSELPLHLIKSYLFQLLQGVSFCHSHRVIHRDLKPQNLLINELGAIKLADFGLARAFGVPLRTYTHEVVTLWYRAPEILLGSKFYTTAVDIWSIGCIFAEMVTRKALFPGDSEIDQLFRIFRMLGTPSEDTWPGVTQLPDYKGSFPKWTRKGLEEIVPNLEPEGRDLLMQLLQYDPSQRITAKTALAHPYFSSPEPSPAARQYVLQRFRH

% of control [1]: 100%
SMILES: CCN(CC)CCCCNc1ncc2cc(-c3cc(OC)cc(OC)c3)c(NC(=O)NC(C)(C)C)nc2n1

SMILES: Nc1cnc(N2CCc3cc(S(=O)(=O)Nc4c(F)cc(Cl)cc4F)cc(N4CCCC4=O)c32)nc1 [TP-020n]
% of control [2]: 99%

SMILES: N#Cc1cccc(-c2c[nH]c3ncnc(N4CCOCC4)c23)c1
% of control [3]: 100%

SMILES: C=CC(=O)Nc1ccc(C(=O)Nc2[nH]nc3c2CN(C(=O)N[C@H](CN(C)C)c2ccccc2)C3(C)C)cc1
% of engagement [4]: 0.7%

% of inhibition [5]: -5.9%
SMILES: CC[C@@H]1[C@H](F)C(=O)N[C@@H]1COc1nccc2cc(C(N)=O)c(OC)cc12 [ZIMLOVISERTIB]

SMILES: COc1cc(N(C)c2ccnc3ccc(C(F)(F)F)cc23)cc(OC)c1OC
Kd [6]: 7.1 µM

SMILES: COc1cc(Nc2nc(C)cc(-c3cnn4nc(OC)ccc34)n2)cc(C(F)(F)F)c1
% of control [7]: 100%

IC50 [8]: > 30 µM
SMILES: CCC(=O)N1CC[C@H](Nc2ncnc3c2CN(c2cnc(OC)c(C(F)(F)F)c2)CC3)C1 [LENIOLISIB]
